Assay results from patent US20190330224A1, “ACC INHIBITORS AND USES THEREOF” (Gilead Apollo, LLC, priority 2015, published 2019).
≈ marks a conversion by molar mass, not a printed value.

Key:
[1] = compound concentration 10 ppm, foliar spray, evaluated 7 days after inoculation
Human ACC2 = Human ACC2 (Homo sapiens, UniProt O00763); experiment: In vitro ACC2 inhibition assay (ADP-Glo), human ACC2; assay type: biochemical; conditions: 5 nM ACC2, 20 μM ATP, 20 μM acetyl-CoA
C. albicans ATCC 90028 = experiment: Anti-Fungal Activity Assay (broth microtiter MIC), C. albicans; assay type: cell-based, Candida albicans; conditions: Candida albicans, ATCC90028, 48 h, 3 replicates; MIC recorded at 48 h; read-out: MIC C. albicans ATCC 90028
How it was run: (§1)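 Candida strains were grown from frozen stock on Sabouraud dextrose agar overnight at 35° C, then suspended directly in RPMI 1640+MOPS and quantified against standard curves. Broth microdilution MIC plates followed CLSI M27-A3; MICs were read visually against growth control at 48 h, with a 24 h read added for soraphen.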

C. krusei ATCC 6258 = experiment: Anti-Fungal Activity Assay (broth microtiter MIC), C. krusei; assay type: cell-based, Candida krusei; conditions: Pichia kudriavzevii, ATCC6258, 48 h, 3 replicates; MIC recorded at 48 h; read-out: MIC C. krusei ATCC 6258
How it was run: as §1

[2] = test system: C. parapsilosis ATCC 22019; experiment: Anti-Fungal Activity Assay (broth microtiter MIC), C. parapsilosis; assay type: cell-based, Candida parapsilosis; conditions: Lodderomyces parapsilosis, ATCC22019, 48 h, 3 replicates; MIC recorded at 48 h; read-out: MIC C. parapsilosis ATCC 22019
How it was run: as §1

Botrtyis cinerea (Bc) = experiment: Growth inhibition assay of fungal pathogens, Bc; assay type: cell-based; conditions: 48 hours; read-out: Concentration at 90% Inhibition, Bc
Procedure: (§2) Compounds of the present invention were evaluated in a growth inhibition assay to determine the ability to control the growth of fungal pathogens, such as Botrtyis cinerea (Bc). Collectotrichum graminicola (Cg), Diplodia maydis (Dm), Fusarium moniliforme (Fm), Fusarium virguliforme (Fv), Phytophthora capsici (Pc), Rhizoctonia solani (Rs), and Septoria tritici (St). Compounds to be tested were dissolved in DMSO at 2.5 mg/ml to produce compound stock solutions (“stocks”). Stocks were diluted with DMSO by a five-fold dilution in a 96-well stock plate, and two sets of final concentrations of 50, 10, and 2 ppm or 2, 0.4, and 0.08 ppm were obtained in vitro. A set of positive controls was also prepared, with various concentrations of Soraphen (2, 0.4, and 0.08 ppm), Metalaxyl (1.1, 0.22, and 0.04 ppm), and Metconazole (2, 0.4, and 0.08 ppm or 0.2, 0.04, and 0.008 ppm) after the five-fold dilutions. Negative controls on each plate included 2% DMSO, water, and a blank (media+2% DMSO). Fungal spores were isolated from previously sub-cultured plates of Botrtyis cinerea (Bc), Collectotrichum graminicola (Cg), Diplodia maydis (Dm), Fusarium moniliforme (Fm), Fusarium virguliforme (Fv), Phytophthora capsici (Pc), and Septoria tritici (St). The isolated spores were diluted to individual concentrations with a 17% V8 liquid media. For Rhizoctonia solani (Rs) and Pythium irregulare, 1.5 mm mycelial plugs were used in place of spores and ¼ Potato Dextrose Broth (PDB) was used for dilution. The spore concentrations and plug sizes were based on growth curves generated at 48 hours for each pathogen. In a second 96-well plate, the spores or mycelial plugs, media, diluted compound solutions, and controls were combined. Once the compound was added, a true final concentration of compound in each well was measured by an OD600 reading, which adjusted for any compound precipitation that might have occurred in the well. Plate readings were repeated at both 24 and 48 hours. The blank negative control was used as a background subtraction. Additional visual ratings were performed at both 24 and 48 hours for checking on precipitation and confirming efficacy. Visual and OD600 ratings of the compounds at 48 hours were compared to the 2% DMSO negative control, and the percent of pathogen growth inhibition was determined based on those values.

[3] = test system: Collectotrichum graminicola (Cg); experiment: Growth inhibition assay of fungal pathogens, Cg; assay type: cell-based; conditions: 48 hours; read-out: Concentration at 90% Inhibition, Cg
Procedure: as §2

Diplodia maydis (Dm) = experiment: Growth inhibition assay of fungal pathogens, Dm; assay type: cell-based; conditions: Stenocarpella maydis; 48 hours; read-out: Concentration at 90% Inhibition, Dm
Procedure: as §2

[4] = test system: Fusarium moniliforme (Fm); experiment: Growth inhibition assay of fungal pathogens, Fm; assay type: cell-based; conditions: Fusarium verticillioides; 48 hours; read-out: Concentration at 90% Inhibition, Fm
Procedure: as §2

[5] = test system: Fusarium virguliforme (Fv); experiment: Growth inhibition assay of fungal pathogens, Fv; assay type: cell-based; conditions: 48 hours, read-out: Concentration at 90% Inhibition, Fv
Procedure: as §2

[6] = test system: Phytophthora capsici (Pc); experiment: Growth inhibition assay of fungal pathogens, Pc; assay type: cell-based; conditions: 48 hours, read-out: Concentration at 90% Inhibition, Pc
Procedure: as §2

Rhizoctonia solani (Rs) = experiment: Growth inhibition assay of fungal pathogens, Rs; assay type: cell-based; conditions: 48 hours, read-out: Concentration at 90% Inhibition, Rs
Procedure: as §2

Septoria tritici (St) = experiment: Growth inhibition assay of fungal pathogens, St; assay type: cell-based; conditions: Zymoseptoria tritici; 48 hours; read-out: Concentration at 90% Inhibition, St
Procedure: as §2

[7] = test system: Blumeria graminis f sp. hordei; experiment: Foliar protection test, barley powdery mildew control; assay type: in vivo, Blumeria graminis f sp. hordei on Hordeum vulgare cv. Perry; conditions: 168 h, compound concentration 50 ppm, foliar spray, evaluated 7 days after inoculation, read-out: Barley Powdery Mildew Control at 50 ppm
Procedure: Compounds of the present invention were evaluated in a foliar protection test to determine the ability to control barley powdery mildew. Plants (Hordeum vulgare cv. Perry) were grown for 6 days in 2-inch square pots containing Metromix 200 medium amended with fertilizer. For propagation, plants were maintained in a growth chamber at conditions of 20 to 21° C., 16 hour light cycle, 400 uM of light, 70% humidity, and with sub-irrigation as needed. After inoculation with the pathogen of Blumeria graminis f sp. hordei, plants were kept at conditions of 20 to 22° C., 70% relative humidity, and 200 uM of light to facilitate infection and disease development. At 6 days after planting (1st true leaf fully expanded), the test compounds were dissolved in a solution of 5% acetone and 0.005% Tween 80 surfactant. An atomizer was used for applying the solution onto both sides of the leaves until thoroughly wetted. The amount of the compound applied to the leaves was typically 200, 100, 50, 10, or 2 ppm, but it may vary. At 24 hours after treatment, the plants were moved to a cooler chamber and inoculated by shaking well-colonized, untreated stock plants above the treated plants. This allowed producing a settling cloud of spores and resulting in uniform infection. Efficacy was evaluated in 7 days later by examining leaves for colonization and growth of mildew. Table 5 lists the results of barley powdery mildew control at a compound concentration of 50 ppm or 10 ppm. Compounds having an activity designated as “AA” provided a compound having >85% control of barley powdery mildew; compounds having an activity designated as “A” provided a compound having from 70% to 84% control of barley powdery mildew; compounds having an activity designated as “B” provided a compound having from 50 to 69% control of barley powdery mildew; compounds having an activity designated as “C” provided a compound having from 25 to 49% control of barley powdery mildew; and compounds having an activity designated as “D” provided a compound having <25% control of barley powdery mildew.

Fungal ACC2 = Fungal ACC2 (UniProt Q00955); conditions: read-out: Fungal ACC2 (IC50, in vitro ACC2 inhibition)
Chain of Fungal ACC2 (Q00955 whole entry): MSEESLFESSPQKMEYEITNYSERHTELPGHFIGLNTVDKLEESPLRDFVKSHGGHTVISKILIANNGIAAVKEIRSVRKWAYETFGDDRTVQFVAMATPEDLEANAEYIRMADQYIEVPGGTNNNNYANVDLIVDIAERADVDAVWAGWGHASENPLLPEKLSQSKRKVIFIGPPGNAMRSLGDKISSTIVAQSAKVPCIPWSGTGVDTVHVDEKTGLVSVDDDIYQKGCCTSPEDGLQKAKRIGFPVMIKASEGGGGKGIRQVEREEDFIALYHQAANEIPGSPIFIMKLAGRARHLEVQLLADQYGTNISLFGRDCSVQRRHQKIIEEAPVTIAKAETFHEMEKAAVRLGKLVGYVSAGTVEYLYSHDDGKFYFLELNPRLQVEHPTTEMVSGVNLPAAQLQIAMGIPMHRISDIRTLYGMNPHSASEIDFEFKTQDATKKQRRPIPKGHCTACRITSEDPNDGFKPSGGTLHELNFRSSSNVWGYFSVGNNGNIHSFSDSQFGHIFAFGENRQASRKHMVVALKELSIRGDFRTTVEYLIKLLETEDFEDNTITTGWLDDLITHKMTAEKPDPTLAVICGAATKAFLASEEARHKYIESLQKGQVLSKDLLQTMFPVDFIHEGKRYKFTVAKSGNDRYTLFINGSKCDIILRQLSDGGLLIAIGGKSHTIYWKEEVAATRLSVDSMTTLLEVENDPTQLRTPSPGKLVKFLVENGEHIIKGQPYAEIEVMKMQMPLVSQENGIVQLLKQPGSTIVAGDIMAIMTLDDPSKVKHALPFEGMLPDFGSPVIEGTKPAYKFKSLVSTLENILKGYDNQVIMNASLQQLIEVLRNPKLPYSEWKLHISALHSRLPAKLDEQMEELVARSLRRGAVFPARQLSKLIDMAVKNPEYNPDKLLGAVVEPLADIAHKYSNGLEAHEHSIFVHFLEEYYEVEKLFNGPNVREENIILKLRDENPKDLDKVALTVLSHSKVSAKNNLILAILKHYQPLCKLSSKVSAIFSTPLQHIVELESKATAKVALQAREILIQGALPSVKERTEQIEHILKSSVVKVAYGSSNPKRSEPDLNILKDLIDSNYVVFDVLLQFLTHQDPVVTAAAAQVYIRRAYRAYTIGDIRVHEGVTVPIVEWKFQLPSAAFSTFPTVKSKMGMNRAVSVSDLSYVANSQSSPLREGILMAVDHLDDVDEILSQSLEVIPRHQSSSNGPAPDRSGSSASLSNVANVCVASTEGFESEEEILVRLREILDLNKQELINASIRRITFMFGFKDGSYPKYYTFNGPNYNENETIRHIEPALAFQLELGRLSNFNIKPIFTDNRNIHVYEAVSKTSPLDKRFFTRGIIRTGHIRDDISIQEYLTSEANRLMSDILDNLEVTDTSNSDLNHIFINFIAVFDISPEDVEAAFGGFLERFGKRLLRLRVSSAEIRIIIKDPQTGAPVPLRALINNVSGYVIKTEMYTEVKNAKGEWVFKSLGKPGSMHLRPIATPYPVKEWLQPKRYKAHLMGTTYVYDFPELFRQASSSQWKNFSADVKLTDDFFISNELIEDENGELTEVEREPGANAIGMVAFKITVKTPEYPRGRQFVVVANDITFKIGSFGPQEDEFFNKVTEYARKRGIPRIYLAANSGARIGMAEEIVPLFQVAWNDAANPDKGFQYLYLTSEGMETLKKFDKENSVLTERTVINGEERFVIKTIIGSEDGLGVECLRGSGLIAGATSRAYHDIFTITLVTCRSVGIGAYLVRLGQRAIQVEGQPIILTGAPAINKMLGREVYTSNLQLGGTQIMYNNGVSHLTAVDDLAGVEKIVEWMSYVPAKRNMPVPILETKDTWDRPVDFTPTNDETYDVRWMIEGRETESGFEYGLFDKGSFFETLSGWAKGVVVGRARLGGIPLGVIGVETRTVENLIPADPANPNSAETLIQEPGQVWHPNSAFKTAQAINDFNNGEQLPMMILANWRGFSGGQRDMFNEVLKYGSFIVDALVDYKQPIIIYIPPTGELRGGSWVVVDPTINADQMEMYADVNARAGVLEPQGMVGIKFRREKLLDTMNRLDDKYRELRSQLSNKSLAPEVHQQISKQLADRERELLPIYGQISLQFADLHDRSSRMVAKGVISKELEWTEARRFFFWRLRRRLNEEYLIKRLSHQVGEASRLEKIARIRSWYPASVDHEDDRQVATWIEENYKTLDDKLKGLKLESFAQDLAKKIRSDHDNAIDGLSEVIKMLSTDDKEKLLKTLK

Chain of Human ACC2 (O00763 whole entry): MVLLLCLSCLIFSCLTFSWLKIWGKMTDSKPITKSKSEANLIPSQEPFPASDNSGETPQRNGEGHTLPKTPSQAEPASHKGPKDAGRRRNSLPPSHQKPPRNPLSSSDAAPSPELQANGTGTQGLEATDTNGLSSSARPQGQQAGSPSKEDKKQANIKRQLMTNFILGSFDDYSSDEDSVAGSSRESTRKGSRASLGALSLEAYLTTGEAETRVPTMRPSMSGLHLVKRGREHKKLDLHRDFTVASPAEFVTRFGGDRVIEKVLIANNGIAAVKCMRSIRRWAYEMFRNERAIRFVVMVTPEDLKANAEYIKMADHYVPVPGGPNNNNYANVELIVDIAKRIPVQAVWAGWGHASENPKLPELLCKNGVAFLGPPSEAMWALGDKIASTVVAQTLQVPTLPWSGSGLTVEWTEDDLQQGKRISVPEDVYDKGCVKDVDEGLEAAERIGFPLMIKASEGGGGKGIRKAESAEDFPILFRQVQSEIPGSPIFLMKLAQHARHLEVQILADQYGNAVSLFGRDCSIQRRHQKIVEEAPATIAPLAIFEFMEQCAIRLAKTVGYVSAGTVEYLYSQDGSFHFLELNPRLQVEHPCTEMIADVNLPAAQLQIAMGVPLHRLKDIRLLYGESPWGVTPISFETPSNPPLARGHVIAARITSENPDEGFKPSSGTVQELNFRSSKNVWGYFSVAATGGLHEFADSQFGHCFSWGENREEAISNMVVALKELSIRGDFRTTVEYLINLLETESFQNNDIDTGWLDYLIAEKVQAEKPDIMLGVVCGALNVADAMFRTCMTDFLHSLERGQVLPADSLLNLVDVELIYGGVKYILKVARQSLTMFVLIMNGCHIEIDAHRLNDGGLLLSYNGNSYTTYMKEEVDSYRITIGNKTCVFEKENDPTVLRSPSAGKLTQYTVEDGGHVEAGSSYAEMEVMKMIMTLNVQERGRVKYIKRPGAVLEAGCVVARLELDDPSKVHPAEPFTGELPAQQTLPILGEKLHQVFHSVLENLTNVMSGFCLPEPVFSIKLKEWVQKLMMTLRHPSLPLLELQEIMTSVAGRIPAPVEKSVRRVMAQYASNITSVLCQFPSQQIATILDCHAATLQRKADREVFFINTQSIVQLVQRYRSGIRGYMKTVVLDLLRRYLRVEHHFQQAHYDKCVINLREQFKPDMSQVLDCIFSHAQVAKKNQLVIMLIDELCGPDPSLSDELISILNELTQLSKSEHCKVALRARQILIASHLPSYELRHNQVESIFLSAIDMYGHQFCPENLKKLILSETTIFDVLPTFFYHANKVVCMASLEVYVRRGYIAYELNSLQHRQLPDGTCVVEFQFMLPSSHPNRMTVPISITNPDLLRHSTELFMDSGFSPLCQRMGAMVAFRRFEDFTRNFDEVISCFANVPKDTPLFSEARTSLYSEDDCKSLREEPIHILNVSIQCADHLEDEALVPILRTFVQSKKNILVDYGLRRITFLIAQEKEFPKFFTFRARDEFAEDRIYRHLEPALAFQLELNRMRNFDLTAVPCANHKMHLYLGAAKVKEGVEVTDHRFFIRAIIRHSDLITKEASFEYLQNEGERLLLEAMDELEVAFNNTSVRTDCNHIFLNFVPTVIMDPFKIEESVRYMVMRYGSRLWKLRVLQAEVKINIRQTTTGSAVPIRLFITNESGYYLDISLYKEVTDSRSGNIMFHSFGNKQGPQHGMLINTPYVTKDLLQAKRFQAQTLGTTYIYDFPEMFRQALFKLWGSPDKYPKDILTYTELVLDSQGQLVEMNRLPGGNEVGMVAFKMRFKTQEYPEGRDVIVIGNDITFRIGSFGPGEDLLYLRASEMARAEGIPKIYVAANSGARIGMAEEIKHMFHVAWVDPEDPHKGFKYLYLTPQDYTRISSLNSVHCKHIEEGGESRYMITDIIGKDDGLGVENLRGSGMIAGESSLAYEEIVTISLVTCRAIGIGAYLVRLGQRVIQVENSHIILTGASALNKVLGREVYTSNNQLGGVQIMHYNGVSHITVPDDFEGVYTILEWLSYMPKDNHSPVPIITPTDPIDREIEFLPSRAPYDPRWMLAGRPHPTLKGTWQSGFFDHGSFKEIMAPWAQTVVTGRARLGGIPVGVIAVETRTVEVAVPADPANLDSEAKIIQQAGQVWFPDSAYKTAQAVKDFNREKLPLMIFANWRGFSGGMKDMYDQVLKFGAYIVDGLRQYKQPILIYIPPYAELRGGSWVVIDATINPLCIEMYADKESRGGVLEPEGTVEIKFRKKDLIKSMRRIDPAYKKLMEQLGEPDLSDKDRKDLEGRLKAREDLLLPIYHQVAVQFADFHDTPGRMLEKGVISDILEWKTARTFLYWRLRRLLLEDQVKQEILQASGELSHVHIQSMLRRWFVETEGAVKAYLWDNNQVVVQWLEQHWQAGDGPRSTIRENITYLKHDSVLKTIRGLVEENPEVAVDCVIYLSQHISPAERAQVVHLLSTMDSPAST

SMILES | Barley Powdery Mildew Control at 10 ppm [1] | IC50 (Human ACC2) | MIC (C. albicans ATCC 90028) | MIC (C. krusei ATCC 6258) | MIC [2] | IC90 (Botrtyis cinerea (Bc)) | IC90 [3] | IC90 (Diplodia maydis (Dm)) | IC90 [4] | IC90 [5] | IC90 [6] | IC90 (Rhizoctonia solani (Rs)) | IC90 (Septoria tritici (St)) | pest or weed control at 50 ppm [7] | IC50 (Fungal ACC2)
COc1ccc(F)cc1[C@H](Cn1c(=O)n([C@@H]2CCN(C(C)C)C2=O)c(=O)c2c(C)c(-n3nccn3)sc21)OCCO [Compound I-85, 1-((R)-2-(5-fluoro-2-methoxyphenyl)-2-(2-hydroxy-ethoxy)ethyl)-3-((S)-1-isopropyl-2-oxopyrrolidin-3-yl)-5-methyl-6-(2H-1,2,3-triazol-2-1)thieno[2,3-d]pyrimidine-2,4(1H,3H)-dione] | C (provided a compound having from 25 to 49% control of barley powdery mildew) | 10 to 100 nM | 2.1 to 4 µg/mL (≈ 3.58 to 6.82 µM) | 2.1 to 4 µg/mL (≈ 3.58 to 6.82 µM) | 2.1 to 4 µg/mL (≈ 3.58 to 6.82 µM) | 2 µg/mL (≈ 3.41 µM) | 2 µg/mL (≈ 3.41 µM) | 2 µg/mL (≈ 3.41 µM) | 2 µg/mL (≈ 3.41 µM) | 2 µg/mL (≈ 3.41 µM) | > 50 µg/mL | 2 µg/mL (≈ 3.41 µM) | > 50 µg/mL | 70 to 84% | 
COc1ccc(F)cc1[C@H](Cn1c(=O)n([C@H]2CCCN(C(C)C)C2=O)c(=O)c2c(C)c(-n3nccn3)sc21)OCCO [Compound I-74, 1-((R)-2-(5-fluoro-2-methoxyphenyl)-2-(2-hydroxy-ethoxy)ethyl)-3-((S)-1-isopropyl-2-oxopiperidin-3-yl)-5-methyl-6-(2H-1,2,3-triazol-2-yl)thieno[2,3-d]pyrimidine-2,4(1H,3H)-dione] | D (provided a compound having <25% control of barley powdery mildew) | 10 to 100 nM |  |  |  | 2 µg/mL (≈ 3.33 µM) | 10 µg/mL (≈ 16.6 µM) | 10 µg/mL (≈ 16.6 µM) | 2 µg/mL (≈ 3.33 µM) | 2 µg/mL (≈ 3.33 µM) | > 50 µg/mL | 2 µg/mL (≈ 3.33 µM) | > 50 µg/mL | 70 to 84% | 
COc1ccc(F)cc1[C@H](Cn1c(=O)n([C@@H]2CCCN(C(C)C)C2=O)c(=O)c2c(C)c(-n3nccn3)sc21)OCCO [Compound I-75, 1-((R)-2-(5-fluoro-2-methoxyphenyl)-2-(2-hydroxy-ethoxy)ethyl)-3-((R)-1-isopropyl-2-oxopiperidin-3-yl)-5-methyl-6-(2H-1,2,3-triazol-2-yl)thieno[2,3-d]pyrimidine-2,4(1H,3H)-dione] | D (provided a compound having <25% control of barley powdery mildew) | 10 to 100 nM | 2.1 to 4 µg/mL (≈ 3.5 to 6.66 µM) | 2.1 to 4 µg/mL (≈ 3.5 to 6.66 µM) | 2.1 to 4 µg/mL (≈ 3.5 to 6.66 µM) | 2 µg/mL (≈ 3.33 µM) | 10 µg/mL (≈ 16.6 µM) | 10 µg/mL (≈ 16.6 µM) | 2 µg/mL (≈ 3.33 µM) | 10 µg/mL (≈ 16.6 µM) | > 50 µg/mL | 2 µg/mL (≈ 3.33 µM) | > 50 µg/mL | 50 to 69% | 
COc1ccc(F)cc1[C@H](Cn1c(=O)n([C@H]2CCN(C(C)C)C2=O)c(=O)c2c(C)c(-n3nccn3)sc21)OCCO [Compound I-84, 1-((R)-2-(5-fluoro-2-methoxyphenyl)-2-(2-hydroxy-ethoxy)ethyl)-3-((S)-1-isopropyl-2-oxopyrrolidin-3-yl)-5-methyl-6-(2H-1,2,3-triazol-2-yl)thieno[2,3-d]pyrimidine-2.4(1H,3H)-dione] | D (provided a compound having <25% control of barley powdery mildew) | 2 to 10 nM | 2.1 to 4 µg/mL (≈ 3.58 to 6.82 µM) | 2.1 to 4 µg/mL (≈ 3.58 to 6.82 µM) | 2.1 to 4 µg/mL (≈ 3.58 to 6.82 µM) | 2 µg/mL (≈ 3.41 µM) | 2 µg/mL (≈ 3.41 µM) | 10 µg/mL (≈ 17 µM) | 2 µg/mL (≈ 3.41 µM) | 2 µg/mL (≈ 3.41 µM) | > 50 µg/mL | 2 µg/mL (≈ 3.41 µM) | > 50 µg/mL | 50 to 69% | 
COCCO[C@@H](Cn1c(=O)n([C@H]2CCCN(C(C)C)C2=O)c(=O)c2c(C)c(-n3nccn3)sc21)c1cc(F)ccc1OC [Compound I-78, 1-((R)-2-(5-fluoro-2-methoxyphenyl)-2-(2-methoxy-ethoxy)ethyl)-3-((S)-1-isopropyl-2-oxopiperidin-3-yl)-5-methyl-6-(2H-1,2,3-triazol-2-yl)thieno[2,3-d]pyrimidine-2,4(1H,3H)-dione] |  | 10 to 100 nM | 2.1 to 4 µg/mL (≈ 3.42 to 6.51 µM) | 2.1 to 4 µg/mL (≈ 3.42 to 6.51 µM) | 2.1 to 4 µg/mL (≈ 3.42 to 6.51 µM) | 2 µg/mL (≈ 3.25 µM) | > 50 µg/mL | 10 µg/mL (≈ 16.3 µM) | 2 µg/mL (≈ 3.25 µM) | > 50 µg/mL | > 50 µg/mL | > 50 µg/mL | > 50 µg/mL | 25 to 49% | 2 to 10 nM
